Experiments:
[1] = tested on: vincristine-induced peripheral neuropathy; experiment: Vincristine induced neuropathic pain study; type: in vivo; conditions: CBD 15 minutes prior to each vincristine 0.1 mg/kg injection
Experimental: (§1) A study was designed to test the efficacy of CBD in preventing oxaliplatin- or vincristine-induced peripheral neuropathy. Two doses of CBD and vehicle were tested against each of these first line chemotherapeutic agents. Oxaliplatin was administered once at a dose of 6 mg/kg. CBD was administered 15 minutes prior to the single oxaliplatin injection. Vincristine was administered once daily for 7 days at a dose of 0.1 mg/kg. CBD was administered 15 minutes prior to each vincristine injection. For each treatment group the final sample size was 8 animals.

[2] = tested on: U251 cells; experiment: Orthotopic mouse model of glioblastoma multiforme, U251 cells; type: in vivo, female athymic nu/nu mice
Experimental: All mice were injected intraperitoneally.
Survival between groups was compared using a Kaplan-Meier analysis and long-rank Mantel-Cox test or The Gehan-Breslow-Wilcoxon test. P values <0.05 defined statistical significance.

[3] = tested on: psychomotor seizure induced by 6 Hz stimulation; experiment: Minimal clonic seizure (6 Hz) psychomotor seizure test; conditions: intraperitoneal; for 6 HZ N/F (animals protected/tested): Anticonvulsant Screening, mice; for 6 Hz N/F (animals protected/tested) / 6 Hz N/F: CF1 mice; for ED50: Mus musculus, ip; for 6 Hz N/F: Time to Peak Effect (Table 54)
[4] = tested on: oxaliplatin-induced peripheral neuropathy; experiment: Oxaliplatin induced neuropathic pain study; type: in vivo; conditions: CBD 15 minutes prior to single oxaliplatin 6 mg/kg
Experimental: as §1

C=C(C)[C@@H]1CCC(C)=C[C@H]1c1c(O)cc(CCCCC)cc1O [cannabidiol, (−)-trans-2-p-mentha-1,8-dien-3-yl-5-pentylresorcinol]
effect on vincristine-induced mechanical sensitivity (in words) [1]: no main effect of treatment | effect on antitumor activity of temozolomide (in words) ([2]; 15 mg/kg cannabidiol with temozolomide 1.5 mg/kg): enhanced the antitumor activity of temozolomide | survival (in words) ([2]; vehicle outlier included): did not increase survival | 6 HZ N/F (animals protected/tested) ([3]; 10 mg/kg, 0.5 h, ethanol:polyethoxylated castor oil:PBS): 0/4 | 6 HZ N/F (animals protected/tested) ([3]; 10 mg/kg, 0.5 h, methylcellulose): 0/4 | 6 HZ N/F (animals protected/tested) ([3]; 10 mg/kg, 1.0 h, ethanol:polyethoxylated castor oil:PBS): 0/4 | 6 HZ N/F (animals protected/tested) ([3]; 10 mg/kg, 1.0 h, methylcellulose): 0/4 | 6 HZ N/F (animals protected/tested) ([3]; 10 mg/kg, 2.0 h, ethanol:polyethoxylated castor oil:PBS): 0/4 | 6 HZ N/F (animals protected/tested) ([3]; 10 mg/kg, 2.0 h, methylcellulose): 0/4 | 6 HZ N/F (animals protected/tested) ([3]; 30 mg/kg, 0.5 h, ethanol:polyethoxylated castor oil:PBS): 0/4 | 6 HZ N/F (animals protected/tested) ([3]; 30 mg/kg, 0.5 h, methylcellulose): 0/4 | 6 HZ N/F (animals protected/tested) ([3]; 30 mg/kg, 1.0 h, ethanol:polyethoxylated castor oil:PBS): 0/4 | 6 HZ N/F (animals protected/tested) ([3]; 30 mg/kg, 1.0 h, methylcellulose): 0/4 | 6 HZ N/F (animals protected/tested) ([3]; 30 mg/kg, 2.0 h, ethanol:polyethoxylated castor oil:PBS): 0/4 | 6 HZ N/F (animals protected/tested) ([3]; 30 mg/kg, 2.0 h, methylcellulose): 0/4 | 6 HZ N/F (animals protected/tested) ([3]; 100 mg/kg, 0.5 h, ethanol:polyethoxylated castor oil:PBS): 2/4 | 6 HZ N/F (animals protected/tested) ([3]; 100 mg/kg, 0.5 h, methylcellulose): 1/4 | 6 HZ N/F (animals protected/tested) ([3]; 100 mg/kg, 1.0 h, ethanol:polyethoxylated castor oil:PBS): 0/4 | 6 HZ N/F (animals protected/tested) ([3]; 100 mg/kg, 1.0 h, methylcellulose): 0/4 | 6 HZ N/F (animals protected/tested) ([3]; 100 mg/kg, 2.0 h, ethanol:polyethoxylated castor oil:PBS): 0/4 | 6 HZ N/F (animals protected/tested) ([3]; 100 mg/kg, 2.0 h, methylcellulose): 0/4 | 6 Hz N/F (animals protected/tested) ([3]; ED50 Biological Response (Table 53), 30 mg/kg, 0.5 h, methylcellulose): 0/8 | 6 Hz N/F (animals protected/tested) ([3]; ED50 Biological Response (Table 53), 65 mg/kg, 0.5 h, methylcellulose): 5/8 | 6 Hz N/F (animals protected/tested) ([3]; ED50 Biological Response (Table 53), 130 mg/kg, 0.5 h, methylcellulose): 5/8 | 6 Hz N/F (animals protected/tested) ([3]; ED50 Biological Response (Table 53), 160 mg/kg, 0.5 h, methylcellulose): 8/16 | 6 Hz N/F (animals protected/tested) ([3]; ED50 Biological Response (Table 53), 190 mg/kg, 0.5 h, methylcellulose): 7/8 | 6 Hz N/F (animals protected/tested) ([3]; ED50 Biological Response (Table 55), 50 mg/kg, 0.5 h, ethanol:polyethoxylated castor oil:PBS): 1/8 | 6 Hz N/F (animals protected/tested) ([3]; ED50 Biological Response (Table 55), 100 mg/kg, 0.5 h, ethanol:polyethoxylated castor oil:PBS): 1/8 | 6 Hz N/F (animals protected/tested) ([3]; ED50 Biological Response (Table 55), 130 mg/kg, 0.5 h, ethanol:polyethoxylated castor oil:PBS): 4/8 | 6 Hz N/F (animals protected/tested) ([3]; ED50 Biological Response (Table 55), 170 mg/kg, 0.5 h, ethanol:polyethoxylated castor oil:PBS): 6/8 | 6 Hz N/F (animals protected/tested) ([3]; ED50 Biological Response (Table 55), 200 mg/kg, 0.5 h, ethanol:polyethoxylated castor oil:PBS): 8/8 | ED50 ([3]; 1:1:18 ethanol:polyethoxylated castor oil:PBS solvent): 122 mg/kg | ED50 ([3]; methylcellulose solvent): 104 mg/kg | 6 Hz N/F ([3]; 300 mg/kg, 0.25 h, methylcellulose): 1/8 | 6 Hz N/F ([3]; 300 mg/kg, 0.5 h, methylcellulose): 0/8 | 6 Hz N/F ([3]; 300 mg/kg, 1 h, methylcellulose): 0/8 | 6 Hz N/F ([3]; 300 mg/kg, 2 h, methylcellulose): 0/8 | 6 Hz N/F ([3]; 300 mg/kg, 4 h, methylcellulose): 0/8 | 6 Hz N/F ([3]; 300 mg/kg, 6 h, methylcellulose): 0/8 | 6 Hz N/F ([3]; 300 mg/kg, 24 h, methylcellulose): 0/8 | 6 Hz N/F ([3]; 500 mg/kg, 0.25 h, methylcellulose): 1/8 | 6 Hz N/F ([3]; 500 mg/kg, 0.5 h, methylcellulose): 0/8 | 6 Hz N/F ([3]; 500 mg/kg, 1 h, methylcellulose): 0/8 | 6 Hz N/F ([3]; 500 mg/kg, 2 h, methylcellulose): 0/8 | 6 Hz N/F ([3]; 500 mg/kg, 4 h, methylcellulose): 0/8 | 6 Hz N/F ([3]; 500 mg/kg, 6 h, methylcellulose): 0/8 | 6 Hz N/F ([3]; 500 mg/kg, 24 h, methylcellulose): 2/8 | effect on oxaliplatin-induced mechanical sensitivity (in words) [4]: attenuated

— US11911361B2, “Stable cannabinoid formulations” (priority 2014, dated 2024)
